Results taken from patent US20240148679A1, “METHODS AND COMPOSITIONS RELATED TO TREATMENT AND PREVENTION OF CANCER BY INHIBITION OF DGAT1 AND DGAT2” (Ohio State Innovation Foundation, priority 2019, published 2024).

What was measured:
GBM cells (U251) = test: Seahorse analysis of OCR and ECAR; type: cell-based, human; conditions: 20 μg/ml for 24 hours; for oxygen consumption rate (OCR): vs control cells
Method: (A, B) Transmission electron microscopy (TEM) analysis of the mitochondrial morphology in GBM cells (U251) treated with the DGAT1 inhibitor A-922500 (20 μg/ml) or DGAT2 inhibitor PF-06424439 (20 μg/ml) for 24 hr and shown in a or infected with shRNA-expressing lentivirus against DGAT1 for 48 hr and shown in b. Scale bar, 500 nm. Mitochondria are indicated by red arrows. Mitochondria length and loss of cristae (%) were quantified by ImageJ over 100 mitochondria in each group (mean±SEM). Statistical significance was determined by one-way ANOVA. * P<0.0001. (C, D) Representative fluorescence images of LDs (green) and mitochondria (red) in U251 cells treated with DGAT1 or DGAT2 inhibitor and shown in c or shRNA in (D) as in panels (A, B). LDs were stained with BODIPY 493/503 (green) and mitochondria were stained with MitoTracker Red. Nuclei were stained with Hoechst 33342 (blue). Scale bar, m. The percentage of cells with tubular or fragmented mitochondria was quantified by ImageJ in more than 100 cells (mean±SEM). Statistical significance was determined by one-way ANOVA. * P<0.001. (E, F) Analysis of mitochondrial activity by measuring oxygen consumption rate (OCR) in U251 cells treated with DGAT1/DGAT2 inhibitors or shRNA as in panels (A, B). Lower panels show the quantification of relative basal and maximal OCR change (details please see Methods). Data represent the mean±SD from 3 independent experiments. Basal OCR was determined as OCR before oligomycin subtract OCR after rotenone addition, and maximal OCR was determined as OCR after FCCP subtract OCR after rotenone addition. Statistical significance was determined by one-way ANOVA. * P<0.0001. (G, H) Representative fluorescence images of reactive oxygen species (ROS) production and mitochondria (green) in U251 cells treated with DGAT1/DGAT2 inhibitors or shRNA as in panels (A, B). ROS were detected with CellROX Deep Red, and mitochondria were stained with MitoTracker Green. Nuclei were stained with Hoechst 33342 (blue). Scale bar, 10 m. ROS levels were quantified by ImageJ in more than 100 cells (mean±SD). Statistical significance was determined by one-way ANOVA. * P<0.0001. (I, J) Representative fluorescence images of ROS levels (red) detected by CellROX Deep Red in U251 cells treated with the DGAT1 inhibitor or shRNA as in panels a and b in the presence or absence of N-acetyl-cysteine (NAC, 1 mM). Nuclei were stained with Hoechst 33342 (blue). Scale bar, 10 m. ROS levels were quantified by ImageJ in more than 100 cells (mean±SD) (right upper panels). Live and dead cells were counted by trypan blue staining after treatment for 3 days (mean±SD, n=3) (right bottom panels). Statistical significance was determined by one-way ANOVA. * P<0.0001. […]

HepG2 cells = test: HepG2 cell death, trypan blue counting; type: cell-based, human; conditions: DGAT1 and DGAT2 inhibitors alone or in combination, 3 days
Method: (A) RT-qPCR analysis of DGAT1 vs. DGAT2 mRNA expression in GBM cells (U251 and GBM30) and in liver cancer cell line (HepG2). The results are shown as mean±SD (n=3). Statistical significance was determined by a paired Student's t-test. *P<0.01; n.s., not significant. (B) Representative fluorescence imaging of LDs stained with BODIPY 493/503 (green) (upper panels) and TLC analysis of TG levels (lower panels) in GBM and liver cancer cells after treatments with the DGAT1 inhibitor A-922500 (20 μg/ml) or DGAT2 inhibitor PF-06424439 ([…]) alone or in combination for 24 hr. Nuclei were stained with Hoechst 33342 (blue). Scale bar, 10 m. LDs were quantified by the ImageJ software in more than 30 cells in each treatment group (mean±SEM). TG levels were quantified by the ImageJ software and normalized to the untreated control group (mean±SD, n=3). Statistical significance was determined by one-way ANOVA. * P<0.001; #P<0.05. (C) Percentage of dead GBM or liver cancer cells after treatment with DGAT1 or DGAT2 inhibitors alone or in combination for 3 days as in panel B. Live and dead cells were counted after trypan blue staining (mean SD, n=3). Statistical significance was determined by one-way ANOVA. * P<0.0001. […] Statistical significance was determined by one-way ANOVA. * P<0.01. […] Cell death percentage and significance were determined as in panel c (mean±SD, n=3). *P<0.0001; #P<0.001. […]

Structure (SMILES)	extracellular acidification rate (ECAR) (GBM cells (U251))	oxygen consumption rate (OCR) (GBM cells (U251))	cell death of HepG2 cells (HepG2 cells)
O=C(Nc1ccccc1)Nc1ccc(-c2ccc(C(=O)[C@@H]3CCC[C@H]3C(=O)O)cc2)cc1 [A-922500]	did not affect	markedly reduced	inhibition of both enzymes was required for cell death
CS(=O)(=O)O.O=C([C@@H]1CCCN(c2ccc3[nH]c(C4(n5cc(Cl)cn5)CC4)nc3n2)C1)N1CCCC1 [PF-06424439]	did not affect	no reduction was observed	inhibition of both enzymes was required for cell death
